We go through nine compounds from patent US10829648B2, “Succinate dehydrogenase inhibitor containing compositions” (priority 2012, dated 2020).

In brackets after ≈: the same amount, converted by molar mass. Like-named read-outs stand apart in the source and are kept apart here.

Common to all, as to type: cell-based
Test [1] relates to Aspergillus brasiliensis (ATCC 16404). Put plainly: Microtiter plate minimum inhibitory concentration (MIC) test, A. brasiliensis. To be noted: for MIC: Aspergillus brasiliensis, ATCC16404, 168 h, read-out: MIC alone. As for the experimental part: (§1) Sample stock solution of Penflufen was prepared in DMSO at 20000 ppm (active ingredient).
(§2) Microorganisms grown on agar slants were harvested using standard microbiological techniques. The numbers of mold spores were determined by counted using a hemocytometer, and then inoculum was prepared in the media shown in Table 2. Then, 190 ul of inoculum was added into each well containing 10 ul of the serially diluted sample solution.

Test [2] relates to Aureobasidium pullulans (ATCC 9348). Put plainly: Microtiter plate MIC test, A. pullulans. To be noted: for MIC: Aureobasidium pullulans, ATCC9348, 168 h, read-out: MIC alone. As for the experimental part: as §1, §2
The subject of test [3] is P. pinophilum. Put plainly: Microtiter plate MIC test, P. pinophilum. To be noted: for MIC: 168 h, read-out: MIC alone. As for the experimental part:
as §1, §2

For test [4], the system named is Trichoderma virens (ATCC 9645). As to the kind of experiment: Microtiter plate MIC test, T. virens. The following applies: for MIC: Trichoderma virens, ATCC9645, 168 h, read-out: MIC alone. The protocol:
as §1, §2

Test [5] relates to Aspergillus niger (ATCC 9642). Put plainly: Microtiter plate MIC test, A. niger. To be noted: for MIC: Aspergillus niger, ATCC9642, 168 h, read-out: MIC alone. The protocol:
as §1, §2

Test [6] relates to Antrodia sinuosa. As to the kind of experiment: Agar dilution MIC against decay fungus Antrodia sinuosa. The following applies: for MIC: Adustoporia sinuosa, 216 h, read-out: Antrodia sinuosa MIC (ppm). The protocol:
(§3) Total 17 samples, including Penflufen, 8 Penflufen-potentiator blends and 8 potentiators were submitted for evaluation.
(§4) Decay fungi Antrodia sinuosa and Coniophora puteana were obtained from GTS microbiology lab fungal collection and cultured on Potato Dextrose Agar at 28° C.
(§5) The samples were diluted to test at a starting concentration of 1,000 ppm active based on the concentration of Penflufen in the samples. Samples were serially diluted into the molten Potato Dextrose Agar before the agar was solidified. The agar plugs with active fungal hyphae growth were inoculated onto the prepared agar surface.
(§6) All concentrations reported are in ppm.

Test [7] deals with Coniophora puteana. As to the kind of experiment: Agar dilution MIC against decay fungus Coniophora puteana. To be noted: for MIC: Coniophora puteana, 216 h, read-out: Coniophora puteana MIC (ppm). As for the experimental part: as §3, §4, §5, §6
(In agar dilution the substance is mixed into plates at graded concentrations.)

[8] abbreviates: substance alone, A. brasiliensis, 28° C., 7 days, ppm.
Where [9] appears, read: substance alone, A. pullulans, 28° C., 7 days, ppm.
[10] abbreviates: substance alone, P. pinophilum, 28° C., 7 days, ppm.
Where [11] appears, read: substance alone, T. virens, 28° C., 7 days, ppm.
Where [12] appears, read: substance alone, A. niger, 28° C., 7 days, ppm.
The mark [13] stands for this setting: active or potentiator alone, Potato Dextrose Agar, 28° C., 9 days, complete inhibition of hyphae growth.

With `Cc1ccc(S(N)(=O)=O)cc1`, the MIC alone in test [1] (setting [8]), in test [2] (setting [9]), in test [3] (setting [10]), in test [4] (setting [11]) and in test [5] (setting [12]) was 5000 ppm each time.

What is called MIC is the least concentration at which growth counts as inhibited. As to `CCCCCCCCCCCCN(C)C` [Barlene 12, N,N-Dimethyl-N-dodecylamine], the MIC stood at 250 µg/mL in test [6]; 31.2 µg/mL (≈ 146 µM) in test [1]; 7.81 µg/mL (≈ 36.6 µM) in test [2]; 500 µg/mL in test [7]; 7.81 µg/mL (≈ 36.6 µM) in test [3]; 7.81 µg/mL (≈ 36.6 µM) in test [4]. The MIC in test [5] was determined as 250 µg/mL (≈ 1170 µM).

As for `CC(=O)c1c([O-])cc(C)oc1=O.CC(=O)c1c([O-])cc(C)oc1=O.[Zn+2]` [DHA Zn, Dehydroacetic acid zinc salt], the “Antrodia sinuosa MIC (ppm)” value in test [6] (setting [13]) is listed as 125 ppm. In addition, the MIC alone in test [1] (setting [8]) was 500 ppm; in test [2] (setting [9]) it was 1000 ppm; in test [3] (setting [10]) it was over 1000 ppm; in test [4] (setting [11]), 250 ppm; in test [5] (setting [12]), 500 ppm. Also, the “Coniophora puteana MIC (ppm)” value in test [7] (setting [13]) is on record as 125 ppm.

On to `CCCCCCCC/C=C\CCCCCCCCN` [Oleylamine, (Z)-Octa-9-decenylamine], for which, in test [6] (setting [13]), the “Antrodia sinuosa MIC (ppm)” value turned out to be 50.0 ppm. Moreover, the MIC alone in test [1] (setting [8]) is on record as 2.5 ppm; in test [2] (setting [9]), 0.31 ppm; in test [3] (setting [10]) it was 1.25 ppm; in test [4] (setting [11]), 0.625 ppm; in test [5] (setting [12]), 1.25 ppm. Further, in test [7] (setting [13]), the “Coniophora puteana MIC (ppm)” value came out at 50.0 ppm.

On to `Cc1nn(C)c(F)c1C(=O)Nc1ccccc1C(C)CC(C)C` (centres unmarked) [Penflufen, N-[2-(1,3-dimethylbutyl)phenyl]-5-fluoro-1,3-dimethyl-1H-pyrazole-4-carboxamide, reference compound], for which the minimum inhibitory concentration (MIC) is 62.5 µg/mL in test [6] (setting [13]); 15.7 µg/mL (≈ 49.3 µM) in test [1] (setting [8]); 500 µg/mL (≈ 1580 µM) in test [2] (setting [9]); 125 µg/mL in test [7] (setting [13]); over 1000 µg/mL in test [3] (setting [10]); over 1000 µg/mL in test [4] (setting [11]). For the same compound, the minimal inhibitory concentration (MIC) in test [5] (setting [12]) was 7.81 µg/mL (≈ 24.6 µM).

Take `O=C([O-])c1ccccc1.[Na+]` [Sodium benzoate]: the “Antrodia sinuosa MIC (ppm)” value in test [6] (setting [13]) is listed as 1250 ppm. In test [7] (setting [13]), the “Coniophora puteana MIC (ppm)” value turned out to be 313 ppm.

With Isononoic Acid, the “Antrodia sinuosa MIC (ppm)” value in test [6] (setting [13]) worked out at 313 ppm. Besides, the MIC alone in test [1] (setting [8]) came to 1250 ppm; in test [2] (setting [9]), 625 ppm; in test [3] (setting [10]) it was 625 ppm; in test [4] (setting [11]), 625 ppm; in test [5] (setting [12]) it was 625 ppm. Moreover, in test [7] (setting [13]), the “Coniophora puteana MIC (ppm)” value stood at 156 ppm.

For “Tris(2-hydroxyethyl)-N-tallowalkyl-1,3-diaminopropane [Ethoduomeen]”, the “Antrodia sinuosa MIC (ppm)” value in test [6] (setting [13]) stood at 625 ppm. Besides, the MIC alone is on record as under 4.88 ppm in test [1] (setting [8]); 9.76 ppm in test [2] (setting [9]); under 4.88 ppm in test [3] (setting [10]); under 4.88 ppm in test [4] (setting [11]); under 4.88 ppm in test [5] (setting [12]). For the same compound, the “Coniophora puteana MIC (ppm)” value in test [7] (setting [13]) turned out to be 2500 ppm.

On to cocoamine oxide [Barlox 12], for which the “Antrodia sinuosa MIC (ppm)” value in test [6] (setting [13]) was 62.5 ppm. Moreover, the MIC alone in test [1] (setting [8]) stood at 62.5 ppm; in test [2] (setting [9]), 15.62 ppm; in test [3] (setting [10]), 62.5 ppm; in test [4] (setting [11]), 125 ppm; in test [5] (setting [12]) it was 15.62 ppm. In addition, the “Coniophora puteana MIC (ppm)” value in test [7] (setting [13]) is given as 250 ppm.
